Test in all cases: MIC in vitro
Common to all, as to assay type: cell-based

The test system of one test is Escherichia coli R-1513. Particulars: R1513, Dextrose agar, 37° C., 20 hours. The protocol:
(§1) (G. L. Daquet and Y. A. Chabbect, Techniques en bacteriologie (Bacteriological techniques), vol. 3, Flammarion Medecine Sciences, Paris, 1972 and W. B. Hugo and A. D. Rusell, Pharmaceutical Microbiology, Blackwell Scientific Publications, London, (1977)). Antibiotic medium no. 1 (seed agar) (Oxoid CM 327) Tryptone-soya broth (Oxoid CM 129) Ringer's physiological solution 1/4 (oxoid BR 52) Dextrose agar (BBL-11165) 0.1 N NaOH "Escherichia coli" R-1513 Each of the microorganisms is seeded by streaking in tubes of Antibiotic medium No. 1 (seed agar), which are then incubated at 37° C. for 20 hours. Using a culture loop, the cultures are then seeded in tryptone-soyabroth and incubated at 37° C. for 20 hours. The culture obtained is diluted to 1/4 with Ringer's physiological solution, so as to obtain a standardized suspension of 10^7 -10^9 cfu/ml for each organism. Starting from a solution of 1,000 μg/ml in 0.1 N NaOH, each product is diluted in Dextrose agar (previously melted and maintained at 50° C.), with successive dilutions so as to obtain the following concentrations: 64--32--16--8--4--2--1--0.5--0.25--0.125 μg of derivative/ml medium. For each product, the solution of each concentration is subsequently distributed into Petri dishes 10 cm in diameter, with 10 ml of medium per dish and the same number of dishes as microorganisms to be tested. As soon as the medium has cooled, the dishes are seeded with the inoculations using 0.4 ml of inoculation per dish. They are spread with a Driglasky loop and the supernatant is removed. The seeded dishes are incubated at 37° C. for 20 hours.

The next test concerns Shigella flexnerii. The conditions noted are these: Dextrose agar, 37° C., 20 hours. The protocol: (G. L. Daquet and Y. A. Chabbect, Techniques en bacteriologie (Bacteriological techniques), vol. 3, Flammarion Medecine Sciences, Paris, 1972 and W. B. Hugo and A. D. Rusell, Pharmaceutical Microbiology, Blackwell Scientific Publications, London, (1977)).
Antibiotic medium no. 1 (seed agar) (Oxoid CM 327)
Tryptone-soya broth (Oxoid CM 129)
Ringer's physiological solution 1/4 (oxoid BR 52) Dextrose agar (BBL-11165) 0.1 N NaOH
Each of the microorganisms is seeded by streaking in tubes of Antibiotic medium No. 1 (seed agar), which are then incubated at 37° C. for 20 hours. Using a culture loop, the cultures are then seeded in tryptone-soyabroth and incubated at 37° C. for 20 hours. The culture obtained is diluted to 1/4 with Ringer's physiological solution, so as to obtain a standardized suspension of 10^7 -10^9 cfu/ml for each organism.
Starting from a solution of 1,000 μg/ml in 0.1 N NaOH, each product is diluted in Dextrose agar (previously melted and maintained at 50° C.), with successive dilutions so as to obtain the following concentrations: 64--32--16--8--4--2--1--0.5--0.25--0.125 μg of derivative/ml medium.
For each product, the solution of each concentration is subsequently distributed into Petri dishes 10 cm in diameter, with 10 ml of medium per dish and the same number of dishes as microorganisms to be tested.
As soon as the medium has cooled, the dishes are seeded with the inoculations using 0.4 ml of inoculation per dish. They are spread with a Driglasky loop and the supernatant is removed. The seeded dishes are incubated at 37° C. for 20 hours.

Test [1] concerns Proteus mirabilis ATCC 4675. The conditions noted are these: ATCC4675, Dextrose agar, 37° C., 20 hours. The protocol:
as §1, with “"Proteus mirabilis" ATCC 4675” for “"Escherichia coli" R-1513”

A further test has as its system Proteus morganii CHSP 16. The conditions noted are these: Morganella morganii, CHSP16, Dextrose agar, 37° C., 20 hours. The protocol:
as §1, with “"Proteus morganii" CHSP 16” for “"Escherichia coli" R-1513”

Converted amounts (≈) assume the structure as drawn.

Take `CCn1cc(C(=O)O)c(=O)c2cnc(N3CCNCC3)nc21` [Pipemidic acid, reference compound]: the MIC amounted to 16 µg/mL (≈ 52.7 µM) in the test with Escherichia coli R-1513, 4 µg/mL (≈ 13.2 µM) in the test on Shigella flexnerii, 16 µg/mL (≈ 52.7 µM) in test [1] and 8 µg/mL (≈ 26.4 µM) in the test on Proteus morganii CHSP 16.

Turning to `CCn1cc(C(=O)O)c(=O)c2ccc(-n3cccc3)nc21` [Example 3, 1-ethyl-1,4-dihydro-4-oxo-7-(1-pyrrolyl)-1,8-naphthyridine-3-carboxylic acid], the minimum inhibitory concentration (MIC) in the test on Escherichia coli R-1513 is 16 µg/mL (≈ 56.5 µM); in the test on Shigella flexnerii, 16 µg/mL (≈ 56.5 µM); in test [1], over 64 µg/mL; in the test on Proteus morganii CHSP 16, 8 µg/mL (≈ 28.2 µM).

In the case of `CCn1cc(C(=O)O)c(=O)c2ccc(-n3cccc3)cc21` [Example 1, 7-(1-pyrrolyl)-1-ethyl-1,4-dihydro-4-oxo-3-quinolinecarboxylic acid], the MIC with Escherichia coli R-1513 stood at 16 µg/mL (≈ 56.7 µM); with Shigella flexnerii, 8 µg/mL (≈ 28.3 µM); in test [1], 16 µg/mL (≈ 56.7 µM); in the test with Proteus morganii CHSP 16, 8 µg/mL (≈ 28.3 µM).

Consider `CCn1cc(C(=O)O)c(=O)c2cc(F)c(-n3cccc3)nc21` [Example 4, 1-ethyl-1,4-dihydro-4-oxo-6-fluoro-7-(1-pyrrolyl)-1,8-naphthyridine-3-carboxylic acid], for which the MIC with Escherichia coli R-1513 came to 4 µg/mL (≈ 13.3 µM); in the test with Shigella flexnerii it was 2 µg/mL (≈ 6.64 µM); in test [1], 8 µg/mL (≈ 26.6 µM); against Proteus morganii CHSP 16 it was 4 µg/mL (≈ 13.3 µM).

Turning to `CCn1cc(C(=O)O)c(=O)c2cc(F)c(-n3cccc3)cc21` [Example 2, 6-fluoro-7-(1-pyrrolyl)-1-ethyl-1,4-dihydro-4-oxo-3-quinolinecarboxylic acid], the MIC against Escherichia coli R-1513 amounted to 4 µg/mL (≈ 13.3 µM); with Shigella flexnerii, 2 µg/mL (≈ 6.66 µM); in test [1], 4 µg/mL (≈ 13.3 µM); with Proteus morganii CHSP 16 it was 2 µg/mL (≈ 6.66 µM).

Source of the values: patent publication US4552882A, “7-(1-Pyrrolyl) derivatives of 1-ethyl-1,4-dihydro-4-oxoquinoline-3-carboxylic acids and 1-ethyl-1,4-dihydro-4-oxo-1,8-naphthyridine-3-carboxylic acids and their use as antimicrobial agents” (Provesan, SA, priority 1983, dated 1985).
